These results are taken from PubChem BioAssay AID296 (DTP/NCI, 2004).

“And” between values parts separate entries of the source, which are not always exact repeats. Equal values may be shown once. Inconclusive results are not listed. Where a SMILES comes first, the peptide text is derived from it. The star is where a group is joined. Trt = c1ccc(C(c2ccccc2)(c2ccccc2)*)cc1; Cbz = O=C(OCc1ccccc1)*

For the test, the system named is MX-1 breast xenograft, nude mice, tumor weight T/C. Kind of test: NCI In Vivo Anticancer Drug Screen. Data for tumor model Human Mammary Carcinoma MX-1 Xenograft (intrarenal inoculation) in NU/NU Swiss (nude) mice. Particulars: endpoint: mean tumor weight change, higher = larger tumour. In a few lines: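 Activity is given as a ratio, with each measurement in the compound-treated arm divided by the matching measurement in vehicle-dosed controls. Tumour size or survival serves as the measured parameter.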
For orientation: Xenograft models place foreign cells or tissue in a host animal.

[1] abbreviates: dose: 50.0 mg/kg/injection, schedule: Q04DX003 (sc), vehicle: saline.
Setting [2] is: dose: 100.0 mg/kg/injection, schedule: Q04DX003 (sc), vehicle: saline.
Setting [3] is: dose: 200.0 mg/kg/injection, schedule: Q04DX003 (sc), vehicle: saline.
Setting [4] is: dose: 400.0 mg/kg/injection, schedule: Q04DX003 (sc), vehicle: saline.
Where [5] appears, read: dose: 600.0 mg/kg/injection, schedule: Q04DX003 (sc), vehicle: saline with Tween-80.
Where [6] appears, read: dose: 1200.0 mg/kg/injection, schedule: Q04DX003 (sc), vehicle: saline with Tween-80.

Consider `O=C1c2ccccc2C(=O)c2c(NCCNCCO)ccc(O)c21`, for which the T/C was 95 % of control (dose: 25.0 mg/kg/injection, schedule: Q04DX003 (sc), vehicle: suspension in saline); 92 % of control under setting [1]; 69 % of control under setting [2]; 69 % of control and 78 % of control (dose: 100.0 mg/kg/injection, schedule: Q04DX003 (sc), vehicle: suspension in saline); 63 % of control under setting [3]; 78 % of control (dose: 200.0 mg/kg/injection, schedule: Q04DX003 (sc), vehicle: suspension in saline). Moreover, the T/C was 37 % of control under setting [4] and 98 % of control (dose: 400.0 mg/kg/injection, schedule: Q04DX003 (sc), vehicle: suspension in saline).
Consider `O=C1C=CN(C2OC(CO)C(O)C2O)C(=O)C1` (stereo unspecified), for which the T/C (dose: 50.0 mg/kg/injection, schedule: Q01DX010 (sc), vehicle: saline) was 92 % of control; the T/C (dose: 100.0 mg/kg/injection, schedule: Q01DX010 (sc), vehicle: saline) was 41 % of control; the T/C (dose: 200.0 mg/kg/injection, schedule: Q01DX010 (sc), vehicle: saline) is 27 % of control; the T/C (dose: 400.0 mg/kg/injection, schedule: Q01DX010 (sc), vehicle: saline) was 75 % of control.
Turning to `COc1cccc2c1C(=O)c1c(O)c3c(c(O)c1C2=O)C[C@@](O)(C(C)=O)C[C@@H]3OC1CC(N(C)C)C(O)C(C)O1` (stereo partly specified), the T/C is 293 % of control (dose: 2.0 mg/kg/injection, schedule: Q01DX010 (sc), vehicle: water) and 120 % of control (dose: 4.0 mg/kg/injection, schedule: Q01DX010 (sc), vehicle: water).
As for `CN(C)CCOc1ccc2c(c1)C/C(=C/c1ncc([N+](=O)[O-])n1C)C2=O`, the T/C by setting is: (dose: 300.0 mg/kg/injection, schedule: Q04DX003 (sc), vehicle: saline with Tween-80) 81 % of control; under setting [5], 68 % of control; under setting [6], 89 % of control; (dose: 2400.0 mg/kg/injection, schedule: Q04DX003 (sc), vehicle: saline with Tween-80) 70 % of control.
With `CNc1nc2c(N)ncnc2n1C1OC(CO)C(O)C1O` (stereo unspecified), the T/C is, setting by setting: (dose: 12.5 mg/kg/injection, schedule: Q04DX003 (sc), vehicle: saline) 111 % of control; (dose: 25.0 mg/kg/injection, schedule: Q04DX003 (sc), vehicle: saline) 92 % of control; under setting [1], 60 % of control.
`CCNC(=O)OCc1c(COC(=O)NCC)c(-c2ccc(Cl)c(Cl)c2)n2c1CCC2`: the T/C runs as follows: (dose: 12.5 mg/kg/injection, schedule: Q01DX010 (sc), vehicle: saline with Tween-80) 46 % of control; (dose: 25.0 mg/kg/injection, schedule: Q01DX010 (sc), vehicle: saline with Tween-80) 10 % of control; (dose: 50.0 mg/kg/injection, schedule: Q01DX010 (sc), vehicle: saline with Tween-80) 3 % of control and 8 % of control; (dose: 100.0 mg/kg/injection, schedule: Q01DX010 (sc), vehicle: saline with Tween-80) 4 % of control.
On to `N#CCCN(C(=S)Nc1cccc(C(F)(F)F)c1)C1CCCCC1`, for which the T/C is 89 % of control (dose: 300.0 mg/kg/injection, schedule: Q04DX003 (sc), vehicle: Klucel (hydroxypropylcellulose) (HPC)) and 106 % of control (dose: 2400.0 mg/kg/injection, schedule: Q04DX003 (sc), vehicle: Klucel (hydroxypropylcellulose) (HPC)).
As for `CCCCn1cnc2c(=S)nc[nH]c21`, the T/C reads like this: (dose: 300.0 mg/kg/injection, schedule: Q04DX003 (sc), vehicle: suspension in saline) 119 % of control; (dose: 600.0 mg/kg/injection, schedule: Q04DX003 (sc), vehicle: suspension in saline) 81 % of control; (dose: 1024.0 mg/kg/injection, schedule: Q04DX003 (sc), vehicle: suspension in saline) 67 % of control; (dose: 1200.0 mg/kg/injection, schedule: Q04DX003 (sc), vehicle: suspension in saline) 16 % of control; (dose: 1600.0 mg/kg/injection, schedule: Q04DX003 (sc), vehicle: suspension in saline) 49 % of control; (dose: 2000.0 mg/kg/injection, schedule: Q04DX003 (sc), vehicle: suspension in saline) 4 % of control.
Take `Nc1ncnc2c1ncn2C1OC(COP(=O)(O)O)C(O)C1O` (stereo unspecified): the T/C by setting is: (dose: 100.0 mg/kg/injection, schedule: Q01DX010 (ip), vehicle: saline) 85 % of control; (dose: 200.0 mg/kg/injection, schedule: Q01DX010 (ip), vehicle: saline) 90 % of control; (dose: 333.33 mg/kg/injection, schedule: Q04DX003 (sc), vehicle: saline) 124 % of control; (dose: 400.0 mg/kg/injection, schedule: Q01DX010 (ip), vehicle: saline) 51 % of control; (dose: 666.65 mg/kg/injection, schedule: Q04DX003 (ip), vehicle: saline) 106 % of control; (dose: 666.65 mg/kg/injection, schedule: Q04DX003 (sc), vehicle: saline) 115 % of control. The T/C reads like this: (dose: 800.0 mg/kg/injection, schedule: Q01DX010 (ip), vehicle: saline) 6 % of control; (dose: 1333.3 mg/kg/injection, schedule: Q04DX003 (ip), vehicle: saline) 49 % of control; (dose: 1333.3 mg/kg/injection, schedule: Q04DX003 (sc), vehicle: saline) 62 % of control; (dose: 1600.0 mg/kg/injection, schedule: Q01DX010 (sc), vehicle: saline) -36 % of control; (dose: 2666.6 mg/kg/injection, schedule: Q04DX003 (ip), vehicle: saline) 29 % of control; (dose: 2666.6 mg/kg/injection, schedule: Q04DX003 (sc), vehicle: saline) 76 % of control.
`CCCCCCCCCCCCCCCCCC(=O)Nc1ccn(C2OC(CO)C(O)C2O)c(=O)n1` (stereo unspecified): the T/C is 11 % of control and 15 % of control and 24 % of control under setting [5]; 3 % of control and 8 % of control under setting [6].
Turning to `CC1(C)COCN1COC1CCCCC1`, the T/C was 24 % of control under setting [2]; 32 % of control under setting [3]; 78 % of control under setting [4]; 56 % of control (dose: 800.0 mg/kg/injection, schedule: Q04DX003 (sc), vehicle: saline).
On to `O=S(=O)(O)O.[NH-]C1CCCCC1[NH-].[Pt+2]` (stereo unspecified), for which the T/C (dose: 0.63 mg/kg/injection, schedule: Q01DX010 (sc), vehicle: dextrose) is 95 % of control and 111 % of control and 115 % of control; the T/C (dose: 2.5 mg/kg/injection, schedule: Q01DX010 (sc), vehicle: dextrose) was 10 % of control and 12 % of control.
`COC(=O)C(CSC(c1ccccc1)(c1ccccc1)c1ccccc1)NC(=O)C(CC(N)=O)NC(=O)OCc1ccccc1` (stereo not drawn) (Cbz-Asn-Cys(Trt)-OMe; configuration not given here): the T/C (dose: 300.0 mg/kg/injection, schedule: Q04DX003 (sc), vehicle: distilled water + Tween-80) is 97 % of control; the T/C (dose: 600.0 mg/kg/injection, schedule: Q04DX003 (sc), vehicle: distilled water + Tween-80) was 77 % of control; the T/C (dose: 1200.0 mg/kg/injection, schedule: Q04DX003 (sc), vehicle: distilled water + Tween-80) was 78 % of control; the T/C (dose: 2400.0 mg/kg/injection, schedule: Q04DX003 (sc), vehicle: distilled water + Tween-80) was 94 % of control.
As for `C[N+](C)(C)c1cc2c(nn1)Nc1ccccc1S2`, the T/C runs as follows: (dose: 50.0 mg/kg/injection, schedule: Q01DX010 (sc), vehicle: Klucel (hydroxypropylcellulose) (HPC)) 74 % of control; (dose: 100.0 mg/kg/injection, schedule: Q01DX010 (sc), vehicle: Klucel (hydroxypropylcellulose) (HPC)) 240 % of control and 272 % of control.
On to `OCCOCCN1CCN(CCCN2c3ccccc3Sc3ccc(C(F)(F)F)cc32)CC1`, for which the T/C is, setting by setting: (dose: 3.0 mg/kg/injection, schedule: Q01DX010 (sc), vehicle: saline) 111 % of control; (dose: 24.0 mg/kg/injection, schedule: Q01DX010 (sc), vehicle: saline) 41 % of control and 55 % of control; (dose: 48.0 mg/kg/injection, schedule: Q01DX010 (sc), vehicle: saline) 39 % of control.
As for `C=C(NC(=O)C(=C)NC(=O)c1csc(C2=NC3c4csc(n4)C4NC(=O)c5csc(n5)C(C(C)(O)C(C)O)NC(=O)C5CSC(=N5)/C(=C/C)NC(=O)C(C(C)O)NC(=O)c5csc(n5)C3(CC2)NC(=O)C(C)NC(=O)C(=C)NC(=O)C(C)NC(=O)C(C(C)CC)NC2C=Cc3c(C(C)O)cc(nc3C2O)C(=O)OC4C)n1)C(N)=O` (stereo unspecified), the T/C runs as follows: (dose: 400.0 mg/kg/injection, schedule: Q01DX010 (sc), vehicle: Klucel (hydroxypropylcellulose) (HPC)) 73 % of control; (dose: 800.0 mg/kg/injection, schedule: Q01DX010 (sc), vehicle: Klucel (hydroxypropylcellulose) (HPC)) 98 % of control; (dose: 1600.0 mg/kg/injection, schedule: Q01DX010 (sc), vehicle: Klucel (hydroxypropylcellulose) (HPC)) 81 % of control; (dose: 3200.0 mg/kg/injection, schedule: Q01DX010 (sc), vehicle: Klucel (hydroxypropylcellulose) (HPC)) 117 % of control.
